Assay results taken from PMC4319922, “WIP1 Phosphatase as a Potential Therapeutic Target in Neuroblastoma” (PLoS ONE, 2015).
pIC50: −log10 of the molar value.

Target: T1, WIP1 (wild-type p53-induced phosphatase 1, PPM1D) (Homo sapiens, UniProt O15297)
T1 construct: WIP1-ΔExon6-His-pET-23a+ construct
T1 sequence (O15297 1-420 limits assumed): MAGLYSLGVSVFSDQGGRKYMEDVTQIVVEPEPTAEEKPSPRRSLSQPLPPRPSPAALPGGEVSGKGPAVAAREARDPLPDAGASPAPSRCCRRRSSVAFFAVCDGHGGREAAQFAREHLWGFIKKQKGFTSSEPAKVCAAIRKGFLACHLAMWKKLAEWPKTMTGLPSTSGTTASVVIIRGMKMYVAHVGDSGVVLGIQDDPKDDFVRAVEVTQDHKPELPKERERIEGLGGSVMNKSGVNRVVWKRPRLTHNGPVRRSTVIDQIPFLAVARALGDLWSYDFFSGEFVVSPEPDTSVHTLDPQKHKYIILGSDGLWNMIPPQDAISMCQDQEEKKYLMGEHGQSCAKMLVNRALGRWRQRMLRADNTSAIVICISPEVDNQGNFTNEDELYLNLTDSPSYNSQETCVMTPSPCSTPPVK
Experiment: in vitro phosphatase assay, free phosphate release (BIOMOL Green), H2AX pS139 phosphopeptide substrate (p53 pS15 peptide:[…])
Format: biochemical

For `Cc1ncc(Cl)cc1NCc1ccc(C(=O)N[C@@H](CC2CCCC2)C(=O)NC2CC2)s1` [GSK2830371], the pIC50 was 6.91.
